Results: patent US20240270741A1 (Cogent Biosciences, Inc., priority 2023, published 2024)

The compounds below were run against FGFR2 (Homo sapiens, UniProt P21802) (assay: FGFR wild type enzyme assay (HTRF KinEASE-TK), FGFR2). Details: Enz FGFR2 (nM), FGFR2 wild type enzyme assay.
Sequence of FGFR2 (P21802 399-821 limits assumed): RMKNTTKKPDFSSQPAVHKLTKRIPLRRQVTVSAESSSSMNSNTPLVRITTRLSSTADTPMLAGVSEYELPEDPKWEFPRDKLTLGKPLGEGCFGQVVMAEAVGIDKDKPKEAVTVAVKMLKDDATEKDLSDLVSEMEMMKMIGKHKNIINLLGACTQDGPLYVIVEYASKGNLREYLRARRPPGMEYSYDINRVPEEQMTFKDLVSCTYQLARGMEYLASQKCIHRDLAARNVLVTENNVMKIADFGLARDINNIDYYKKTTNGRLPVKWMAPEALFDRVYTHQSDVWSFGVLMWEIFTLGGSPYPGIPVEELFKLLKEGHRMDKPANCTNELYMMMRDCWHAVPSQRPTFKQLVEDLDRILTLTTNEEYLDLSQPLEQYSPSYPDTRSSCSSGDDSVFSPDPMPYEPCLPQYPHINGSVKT

| IC50 [nM] | SMILES |
| --- | --- |
| 1.5 | N#Cc1cnn2cc(-c3ccc(N4CC[C@H](O)C4)nc3)cc(Sc3ncccc3F)c12 [Example 550, (S)-4-((3-fluoropyridin-2-yl)thio)-6-(6-(3-hydroxypryrrolidin-1-yl)pyridin-3-yl)pyrazolo[1,5-a]pyridine-3-carbonitrile] |
| 2 | N#Cc1cnn2cc(-c3ccc(N4CC[C@@H](O)C4)nc3)cc(Sc3ncccc3F)c12 [Example 551, (R)-4-((3-fluoropyridin-2-yl)thio)-6-(6-(3-hydroxypyrrolidin-1-yl)pyridin-3-yl)pyrazolo[1,5-a]pyridine-3-carbonitrile] |
| 1 | N#Cc1cnn2cc(-c3ccc(N4CCC(O)CC4)nc3)cc(Sc3ncccc3F)c12 [Example 552, 4-((3-fluoropyridin-2-yl)thio)-6-(6-(4-hydroxypiperidin-1-yl)pyridin-3-yl)pyrazolo[1,5-a]pyridine-3-carbonitrile] |
| 1 | N#Cc1cnn2cc(-c3ccc(N4CCNCC4)nc3)cc(Sc3ncccc3F)c12 [Example 553, 4-((3-fluoropyridin-2-yl)thio)-6-(6-(piperazin-1-yl)pyridin-3-yl)pyrazolo[1,5-a]pyridine-3-carbonitrile] |
| 2 | N#Cc1cnn2cc(-c3ccc(N4CCCC4)nc3)cc(Sc3ncccc3F)c12 [Example 554, 4-((3-fluoropyridin-2-yl)thio)-6-(6-(pyrrolidin-1-yl)pyridin-3-yl)pyrazolo[1,5-a]pyridine-3-carbonitrile] |
| 1 | CC(=O)N1CCN(c2ccc(-c3cc(Sc4ncccc4F)c4c(C#N)cnn4c3)cn2)CC1 [Example 555, 6-(6-(4-acetylpiperazin-1-yl)pyridin-3-yl)-4-((3-fluoropyridin-2-yl)thio)pyrazolo[1,5-a]pyridine-3-carbontrile] |
| 1 | Cc1c(-c2cc(Sc3ccccc3C#N)c3c(C#N)cnn3c2)cnn1C1CCN(C#N)CC1 [Example 556, 4-((2-cyanophenyl)thio)-6-(1-(1-cyanopiperidin-4-yl)-5-methyl-1H-pyrazol-4-yl)pyrazolo[1,5-a]pyridine-3-carbonitrile] |
| 2 | Cc1c(-c2cc(Sc3ncccc3F)c3c(C#N)cnn3c2)cnn1C1CCN(C#N)CC1 [Example 557] |
| 2 | Cn1cc(-c2cc(Sc3ccc(F)cc3C#N)c3c(C#N)cnn3c2)cn1 [Example 558, 4-((2-cyano-4-fluorophenyl)thio)-6-(1-methyl-1H-pyrazol-4-yl)pyrazolo[1,5-a]pyridine-3-carbonitrile] |
| 1 | N#Cc1cc(F)ccc1Sc1cc(-c2ccc(N3CCCC3)nc2)cn2ncc(C#N)c12 [Example 559, 4-((2-cyano-4-fluorophenyl)thio)-6-(6-(pyrrolidin-1-yl)pyridin-3-yl)pyrazolo[1,5-a]pyridine-3-carbonitrile] |
| 1 | CN1CCN(c2ccc(-c3cc(Sc4ccc(F)cc4C#N)c4c(C#N)cnn4c3)cn2)CC1 [Example 560, 4-((2-cyano-4-fluorophenyl)thio)-6-(6-(4-methylpiperazin-1-yl)pyridin-3-yl)pyrazolo[1,5-a]pyridine-3-carbonitrile] |
| 7 | Cc1c(-c2cc(Sc3ccc(F)cc3C#N)c3c(C#N)cnn3c2)cnn1C[C@@H](O)CO [Example 561, (R)-4-((2-cyano-4-fluorophenyl)thio)-6-(1-(2,3-dihydroxypropyl)-5-methyl-1H-pyrazol-4-yl)pyrazolo[1,5-a]pyridine-3-carbonitrile] |
| 1 | CC(=O)NC1CCN(c2ccc(-c3cc(Sc4ccccc4C#N)c4c(C#N)cnn4c3)cn2)C1 (stereo not drawn) [Example 562, N-(1-(5-(3-cyano-4-((2-cyanophenyl)thio)pyrazolo [1,5-a]pyridin-6-yl)pyridin-2-yl)pyrrolidin-3-yl)acetamide] |
| 1 | C[C@@H](O)C(=O)N1CCC[C@@H](n2cc(-c3cc(Sc4ccccc4C#N)c4c(C#N)cnn4c3)cn2)C1 [Example 563, 4-((2-cyanophenyl)thio)-6-(1-((R)-1-((R)-2-hydroxypropanoyl)piperidin-3-yl)-1H-pyrazol-4-yl)pyrazolo[1,5-a]pyridine-3-carbonitrile] |
| 0.5 | CO[C@@H](C)C(=O)N1CCC(n2cc(-c3cc(Sc4ccccc4C#N)c4c(C#N)cnn4c3)cn2)CC1 [Example 564, (S)-4-((2-cyanophenyl)thio)-6-(1-(1-(2-methoxypropanoyl)piperidin-4-yl)-1H-pyrazol-4-yl)pyrazolo[1,5-a]pyridine-3-carbonitrile] |
| 0.5 | CO[C@H](C)C(=O)N1CCC(n2cc(-c3cc(Sc4ccccc4C#N)c4c(C#N)cnn4c3)cn2)CC1 [Example 565, (R)-4-((2-cyanophenyl)thio)-6-(1-(1-(2-methoxypropanoyl)piperidin-4-yl)-1H-pyrazol-4-yl)pyrazolo[1,5-a]pyridine-3-carbonitrile] |
| 2 | N#Cc1ccccc1Sc1cc(-c2cnn(CCO)c2)cn2ncc(C#N)c12 [Example 566, 4-((2-cyanophenyl)thio)-6-(1-(2-hydroxyethyl)-1H-pyrazol-4-yl)pyrazolo[1,5-a]pyridine-3-carbonitrile] |
| 1 | C[C@@H](O)Cn1cc(-c2cc(Sc3ccccc3C#N)c3c(C#N)cnn3c2)cn1 [Example 567, (R)-4-((2-cyanophenyl)thio)-6-(1-(2-hydroxypropyl)-1H-pyrazol-4-yl)pyrazolo[1,5-a]pyridine-3-carbonitrile] |

| IC50 [nM] | SMILES |
| --- | --- |
| 1 | C[C@H](O)Cn1cc(-c2cc(Sc3ccccc3C#N)c3c(C#N)cnn3c2)cn1 [Example 568, (S)-4-((2-cyanophenyl)thio)-6-(1-(2-hydroxypropyl)-1H-pyrazol-4-yl)pyrazolo[1,5-a]pyridine-3-carbonitrile] |
| 2 | N#Cc1ccccc1Sc1cc(-c2cn[nH]c2)cn2ncc(C#N)c12 [Example 569, 4-((2-cyanophenyl)thio)-6-(1H-pyrazol-4-yl)pyrazolo[1,5-a]pyridine-3-carbonitrile] |
| 1 | C[C@H](O)CCn1cc(-c2cc(Sc3ccccc3C#N)c3c(C#N)cnn3c2)cn1 [Example 570] |
| 1 | C[C@@H](O)CCn1cc(-c2cc(Sc3ccccc3C#N)c3c(C#N)cnn3c2)cn1 [Example 571, (R)-4-((2-cyanophenyl)thio)-6-(1-(3-hydroxybutyl)-1H-pyrazol-4-yl)pyrazolo[1,5-a]pyridine-3-carbonitrile] |
| 1 | CCn1cc(-c2cc(Sc3ccccc3C#N)c3c(C#N)cnn3c2)cn1 [Example 572, 4-((2-cyanophenyl)thio)-6-(1-ethyl-1H-pyrazol-4-yl)pyrazolo[1,5-a]pyridine-3-carbonitrile] |
| 4 | N#Cc1ccccc1Sc1cc(-c2cnn(CC(=O)O)c2)cn2ncc(C#N)c12 [Example 573, 2-(4-(3-cyano-4-((2-cyanophenyl)thio)pyrazolo [1,5-a]pyridin-6-yl)-1H-pyrazol-1-yl)acetic acid] |
| 1 | CC(=O)N[C@H]1CC[C@H](n2cc(-c3cc(Sc4ccccc4C#N)c4c(C#N)cnn4c3)cn2)CC1 [Example 574, N-((1r,4r)-4-(4-(3-cyano-4-((2-cyanophenyl)thio)pyrazolo [1,5-a]pyridin-6-yl)-1H-pyrazol-1-yl)cyclohexyl)acetamide] |
| 5 | CNc1ccc(-c2cc(Sc3ccc(F)cc3C#N)c3c(C#N)cnn3c2)cn1 [Example 575, 4-((2-cyano-4-fluorophenyl)thio)-6-(6-(methylamino)pyridin-3-yl)pyrazolo[1,5-a]pryidine-3-carbonitrile] |
| 7 | Cc1cccc(Sc2cc(-c3cnn(C)c3)cn3ncc(C#N)c23)c1C#N [Example 576, 4-((2-cyano-3-methylphenyl)thio)-6-(1-methyl-1H-pyrazol-4-yl)pyrazolo[1,5-a]pyridine-3-carbonitrile] |
| 7 | N#Cc1cnn2cc(-c3cn([C@H]4CCCNC4)nc3F)cc(Sc3ncccc3F)c12 [Example 577, (S)-6-(3-fluoro-1-(piperidin-3-yl)-1H-pyrazol-4-yl)-4-((3-fluoropyridin-2-yl)thio)pyrazolo[1,5-a]pyridine-3-carbonitrile] |
| 2 | CC(C)(CO)n1cc(-c2cc(Sc3ccccc3C#N)c3c(C#N)cnn3c2)cn1 [Example 578, 4-((2-cyanophenyl)thio)-6-(1-(1-hydroxy-2-methylpropan-2-yl)-1H-pyrazol-4-yl)pyrazolo[1,5-a]pyridine-3-carbonitrile] |
| 1.5 | CO[C@H]1CC[C@H](n2ncc(-c3cc(Sc4ccc(F)cc4C#N)c4c(C#N)cnn4c3)c2C)CC1 [Example 579, 4-((2-cyano-4-fluorophenyl)thio)-6-(1-((1r,4r)-4-methoxycyclohexyl)-5-methyl-1H-pyrazol-4-yl)pyrazolo[1,5-a]pyridine-3-carbonitrile] |
| 1 | CN(C)c1ccc(-c2cc(Sc3ccccc3C#N)c3c(C#N)cnn3c2)cn1 [Example 580, 4-((2-cyanophenyl)thio)-6-(6-(dimethylamino)pyridin-3-yl)pyrazolo[1,5-a]pyridine-3-carbonitrile] |
| 0.5 | N#Cc1ccccc1Sc1cc(-c2cnn([C@@H]3CCNC3)c2)cn2ncc(C#N)c12 [Example 581, (R)-4-((2-cyanophenyl)thio)-6-(1-(pyrrolidin-3-yl)-1H-pyrazol-4-yl)pyrazolo[1,5-a]pyridine-3-carbonitrile] |
| 1 | CC(=O)N1CC[C@@H](n2cc(-c3cc(Sc4ccccc4C#N)c4c(C#N)cnn4c3)cn2)C1 [Example 582, (R)-6-(1-(1-acetylpyrrolidin-3-yl)-1H-pyrazol-4-yl)-4-((2-cyanophenyl)thio)pyrazolo [1,5-a]pyridine-3-carbonitrile] |
| 1 | N#Cc1ccccc1Sc1cc(-c2cnn(CCCO)c2)cn2ncc(C#N)c12 [Example 583, 4-((2-cyanophenyl)thio)-6-(1-(3-hydroxypropyl)-1H-pyrazol-4-yl)pyrazolo[1,5-a]pyridine-3-carbonitrile] |
| 6 | N#Cc1ccccc1Sc1cc(-c2cnn(C(F)F)c2)cn2ncc(C#N)c12 [Example 584, 4-((2-cyanophenyl)thio)-6-(1-(difluoromethyl)-1H-pyrazol-4-yl)pyrazolo[1,5-a]pyridine-3-carbonitrile] |
| 1 | N#Cc1ccccc1Sc1cc(-c2cnn(C3CCOC3)c2)cn2ncc(C#N)c12 (stereo not drawn) [Example 585, 4-((2-cyanophenyl)thio)-6-(1-(tetrahydrofuran-3-yl)-1H-pyrazol-4-yl)pyrazolo[1,5-a]pryidine-3-carbonitrile] |
